The text below walks through data of BindingDB's records for doi:10.1016/j.bioorg.2017.04.001 (China Pharmaceutical University, 2017).

The target of experiment [1] is Vascular endothelial growth factor receptor 2 (Homo sapiens, UniProt P35968). In words: In Vitro c-Met and VEGFR-2 Enzyme Assay. Particulars: pH 7.4; 37 °C. The protocol:
(§1) Briefly, 20 μg/mL poly (Glu,Tyr) 4:1 (Sigma) was pre-coated in 96-well plates as a substrate. A 50 μL aliquot of 10 μmol/L ATP solution diluted in kinase reaction buffer (50 mmol/L HEPES [pH 7.4], 50 mmol/L MgCl2, 0.5 mmol/L MnCl2, 0.2 mmol/L Na3VO4, and 1 mmol/L DTT) was added to each well; 1 μL of various concentrations of indicated compounds diluted in 1% DMSO (v/v) (Sigma) was then added to each reaction well. DMSO (1%, v/v) was used as the negative control. The kinase reaction was initiated by the addition of purified tyrosine kinase proteins diluted in 49 μL of kinase reaction buffer. After incubation for 60 min at 37 °C, the plate was washed three times with phosphate-buffered saline (PBS) containing 0.1% Tween 20 (T-PBS). Anti-phosphotyrosine (PY99) antibody was then added. After a 30-min incubation at 37 °C, the plate was washed three times, and horseradishperoxidase-conjugated goat anti-mouse IgG was added. The plate was then incubated at 37 °C for 30 min and washed 3 times. A 100 μL aliquot of a solution containing 0.03% H2O2 and 2 mg/ml ophenylenediamine in 0.1 mol/L citrate buffer (pH 5.5) was added. The reaction was terminated by the addition of 50 μL of 2 mol/L H2SO4 as the color changed, and the plate was analyzed using a multi-well spectrophotometer (SpectraMAX 190, Molecular Devices) at 490 nm.

The target of experiment [2] is Hepatocyte growth factor receptor (Homo sapiens, UniProt P08581). As to the kind of experiment: In Vitro c-Met and VEGFR-2 Enzyme Assay. Particulars: pH 7.4; 37 °C. How it is done:
as §1

As a reminder, the IC50 is the midpoint of a concentration-inhibition curve. Low readings indicate greater potency in that assay, high ones weaker potency in that assay.

Sequence of Vascular endothelial growth factor receptor 2 (P35968 whole entry): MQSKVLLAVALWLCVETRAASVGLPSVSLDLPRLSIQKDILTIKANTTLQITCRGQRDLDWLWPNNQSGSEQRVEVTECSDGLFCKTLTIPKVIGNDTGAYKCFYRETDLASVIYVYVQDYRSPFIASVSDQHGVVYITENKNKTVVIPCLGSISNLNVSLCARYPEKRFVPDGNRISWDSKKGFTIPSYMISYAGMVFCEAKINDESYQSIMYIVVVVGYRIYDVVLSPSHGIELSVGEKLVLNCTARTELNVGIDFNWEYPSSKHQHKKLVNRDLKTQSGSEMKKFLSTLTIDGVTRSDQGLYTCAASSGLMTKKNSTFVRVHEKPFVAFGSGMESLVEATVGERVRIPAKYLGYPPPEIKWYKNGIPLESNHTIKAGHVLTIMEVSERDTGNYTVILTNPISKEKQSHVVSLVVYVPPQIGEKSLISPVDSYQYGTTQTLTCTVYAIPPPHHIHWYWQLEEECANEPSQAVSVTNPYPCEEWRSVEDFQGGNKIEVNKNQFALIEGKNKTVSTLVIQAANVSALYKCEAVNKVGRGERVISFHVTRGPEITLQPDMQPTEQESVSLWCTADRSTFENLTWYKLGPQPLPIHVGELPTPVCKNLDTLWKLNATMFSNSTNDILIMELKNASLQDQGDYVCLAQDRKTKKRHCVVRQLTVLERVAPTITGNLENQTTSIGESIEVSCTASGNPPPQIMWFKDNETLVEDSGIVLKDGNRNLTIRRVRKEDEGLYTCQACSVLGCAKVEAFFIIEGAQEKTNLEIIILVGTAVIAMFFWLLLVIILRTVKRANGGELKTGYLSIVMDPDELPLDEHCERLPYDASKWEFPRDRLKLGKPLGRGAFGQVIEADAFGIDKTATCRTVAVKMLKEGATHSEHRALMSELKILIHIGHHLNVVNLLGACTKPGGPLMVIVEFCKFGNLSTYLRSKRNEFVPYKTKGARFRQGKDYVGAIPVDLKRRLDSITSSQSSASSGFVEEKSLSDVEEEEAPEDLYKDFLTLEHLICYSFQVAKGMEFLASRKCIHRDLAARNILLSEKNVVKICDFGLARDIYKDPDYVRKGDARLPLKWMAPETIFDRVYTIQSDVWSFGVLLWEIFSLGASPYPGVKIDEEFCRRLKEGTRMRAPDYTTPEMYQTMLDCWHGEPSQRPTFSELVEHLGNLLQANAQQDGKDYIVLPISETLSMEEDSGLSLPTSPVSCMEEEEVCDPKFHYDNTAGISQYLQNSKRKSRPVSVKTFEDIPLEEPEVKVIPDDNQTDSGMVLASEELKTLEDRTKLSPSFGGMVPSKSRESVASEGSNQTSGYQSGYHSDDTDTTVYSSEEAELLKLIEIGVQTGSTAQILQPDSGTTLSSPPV
Sequence of Hepatocyte growth factor receptor (P08581 whole entry): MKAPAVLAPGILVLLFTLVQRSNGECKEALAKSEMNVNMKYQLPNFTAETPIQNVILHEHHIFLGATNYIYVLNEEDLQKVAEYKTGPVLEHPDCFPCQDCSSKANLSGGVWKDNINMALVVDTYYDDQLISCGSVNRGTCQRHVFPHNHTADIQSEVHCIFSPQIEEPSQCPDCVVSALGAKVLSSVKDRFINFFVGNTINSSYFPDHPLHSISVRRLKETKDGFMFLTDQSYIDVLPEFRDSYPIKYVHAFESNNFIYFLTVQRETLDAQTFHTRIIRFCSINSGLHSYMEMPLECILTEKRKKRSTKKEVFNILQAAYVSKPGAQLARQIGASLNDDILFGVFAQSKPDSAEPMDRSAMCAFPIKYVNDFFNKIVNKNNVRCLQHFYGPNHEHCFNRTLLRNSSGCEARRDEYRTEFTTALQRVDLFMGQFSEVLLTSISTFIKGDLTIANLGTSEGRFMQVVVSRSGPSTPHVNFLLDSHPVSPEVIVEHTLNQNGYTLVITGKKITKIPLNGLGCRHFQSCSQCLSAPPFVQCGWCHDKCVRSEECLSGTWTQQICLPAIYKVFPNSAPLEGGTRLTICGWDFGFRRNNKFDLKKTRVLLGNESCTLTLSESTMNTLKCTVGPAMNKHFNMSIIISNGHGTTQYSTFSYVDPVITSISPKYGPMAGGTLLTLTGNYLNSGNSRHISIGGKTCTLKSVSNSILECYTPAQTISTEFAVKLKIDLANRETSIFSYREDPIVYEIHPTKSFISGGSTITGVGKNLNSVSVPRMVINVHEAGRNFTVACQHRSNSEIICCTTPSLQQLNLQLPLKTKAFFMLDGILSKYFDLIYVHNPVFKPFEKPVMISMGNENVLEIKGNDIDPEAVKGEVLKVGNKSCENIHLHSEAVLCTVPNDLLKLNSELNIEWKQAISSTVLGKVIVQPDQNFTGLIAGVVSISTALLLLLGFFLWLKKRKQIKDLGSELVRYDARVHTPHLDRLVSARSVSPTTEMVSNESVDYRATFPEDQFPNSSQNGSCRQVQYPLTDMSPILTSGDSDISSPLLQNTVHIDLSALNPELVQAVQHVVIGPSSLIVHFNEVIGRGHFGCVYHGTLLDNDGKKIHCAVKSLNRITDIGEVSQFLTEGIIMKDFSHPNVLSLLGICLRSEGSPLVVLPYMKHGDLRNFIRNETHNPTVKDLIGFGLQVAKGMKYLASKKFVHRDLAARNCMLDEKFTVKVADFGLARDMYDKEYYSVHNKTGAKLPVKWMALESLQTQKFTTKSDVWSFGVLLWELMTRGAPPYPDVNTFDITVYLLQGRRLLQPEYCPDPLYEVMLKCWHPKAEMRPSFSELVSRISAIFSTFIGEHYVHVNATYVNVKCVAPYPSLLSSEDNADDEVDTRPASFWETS

In the case of `Cc1c(C(=O)Nc2ccc(Oc3ccnc(C(=O)NCCN4CCOCC4)c3)c(F)c2)c(=O)n(-c2ccccc2)n1C` [4-(4-(1,5-dimethyl-3-oxo-2-phenyl-2,3-dihydro-1H-pyrazole-4-carboxamido)-2-fluorophenoxy)-N-(2-morpholinoethyl)picolinamide (9l)], the IC50 came to 860 nM in experiment [1] and 510 nM in experiment [2].
The like results for `Cc1c(C(=O)Nc2ccc(Oc3ccnc(C(=O)NCCCN4CCOCC4)c3)c(F)c2)c(=O)n(-c2ccccc2)n1C` [4-(4-(1,5-dimethyl-3-oxo-2-phenyl-2,3-dihydro-1H-pyrazole-4-carboxamido)-2-fluorophenoxy)-N-(3-morpholinopropyl) picolinamide (9h)] were, in that order, 840 nM and 250 nM.
`Cc1c(C(=O)Nc2ccc(Oc3ccnc(-c4nncn4CCCN4CCN(C)CC4)c3)c(F)c2)c(=O)n(-c2ccccc2)n1C` [N-(3-fluoro-4-((2-(4-(3-(4-methylpiperazin-1-yl)propyl)-4H-1,2,4-triazol-3-yl)pyridin-4-yl)oxy)phenyl)-1,5-dimethyl-3-oxo-2-phenyl-2,3-dihydro-1H-pyrazole-4-carboxamide (12d)]: in experiment [1], the IC50 came to 190 nM.
Take `Cc1c(C(=O)Nc2ccc(Oc3ccnc(-c4nncn4CCCN(C)C)c3)c(F)c2)c(=O)n(-c2ccccc2)n1C` [N-(3-fluoro-4-((2-(4-(3-dimethylaminopropyl)-4H-1,2,4-triazol-3-yl)pyridin-4-yl)oxy)phenyl)-1,5-dimethyl-3-oxo-2-phenyl-2,3-dihydro-1H-pyrazole-4-carboxamide (12b)]: the IC50 stood at 370 nM in experiment [1] and 150 nM in experiment [2].
Take `Cc1c(C(=O)Nc2ccc(Oc3ccnc(-c4nncn4CCCN4CCOCC4)c3)c(F)c2)c(=O)n(-c2ccccc2)n1C` [N-(3-fluoro-4-((2-(4-(3-morpholinopropyl)-4H-1,2,4-triazol-3-yl)pyridin-4-yl)oxy)phenyl)-1,5-dimethyl-3-oxo-2-phenyl-2,3-dihydro-1H-pyrazole-4-carboxamide (12c)]: the IC50 in experiment [1] came to 520 nM; in experiment [2] it was 170 nM.
`CCN1CCN(C(=O)c2cc(Oc3ccc(NC(=O)c4c(C)n(C)n(-c5ccccc5)c4=O)cc3F)ccn2)CC1` [N-(4-((2-(4-ethylpiperazine-1-carbonyl)pyridin-4-yl)oxy-3-fluorophenyl)-1,5-dimethyl-3-oxo-2-phenyl-2,3-dihydro-1H-pyrazole-4-carboxamide (9j)]: the figures for the IC50 in experiment [1] and in experiment [2] were over 1000 nM and 970 nM, respectively.
The like results for `Cc1c(C(=O)Nc2ccc(Oc3ccnc(C(=O)N4CCC(N5CCCCC5)CC4)c3)c(F)c2)c(=O)n(-c2ccccc2)n1C` [N-(4-((2-([1,4'-bipiperidine]-1'-carbonyl)pyridin-4-yl)oxy)-3-fluorophenyl)-1,5-dimethyl-3-oxo-2-phenyl-2,3-dihydro-1H-pyrazole-4-carboxamide (9o)] were, in that order, 780 nM and 330 nM.
